This is an account of results in ChEMBL document CHEMBL1158208, “Raocyclamides A and B, Novel Cyclic Hexapeptides Isolated from the Cyanobacterium Oscillatoria raoi” (J Nat Prod, 1996).

A short description of data set [1]: Inhibition of Paracentrotus lividus embryo division.
The nature of data set [2]: Inhibition of Paracentrotus lividus embryo division at 250 ug/mL.

In turn, `CC[C@H](C)[C@H]1NC(=O)c2coc(n2)[C@H](C)NC(=O)[C@H]2COC(=N2)[C@@H](Cc2ccccc2)NC(=O)c2csc1n2` [RAOCYCLAMIDE A] yielded an ED100 in data set [1] of 30 µg/mL.
As to `CC[C@H](C)[C@H]1NC(=O)c2coc(n2)[C@H](C)NC(=O)[C@@H](CO)NC(=O)[C@@H](Cc2ccccc2)NC(=O)c2csc1n2` [RAOCYCLAMIDE B], the Activity result in data set [2] is recorded as “Not Active”.
